Among the data in patent publication US9861612B2 (priority 2014, dated 2018) are IC50 values, retold here.

Like-named read-outs stand apart in the source and are kept apart here.

The subject of assay [1] is TH17 cell differentiation (human CD4+CCR6+ T cells). In words: Human Th17 cell differentiation assay (IL-17A ELISA). It is filed as cell-based. The settings on record: 96 h, IL-17A in extracellular media by ELISA, 4 days, mean, read-out: Inhibition of TH17 cell differentiation-Mean IC50. Background: In an ELISA, binding on a coated surface is turned into a signal by an enzyme label.

In assay [2] the target is RORγ ligand binding domain (Homo sapiens (Human), UniProt P51449). In words: biochemical. It is filed as biochemical. As to the method: Various concentrations of test ligands in 0.1 microlitres DMSO were dispensed to assay plates using an Labcyte Echo acoustic dispenser. Two pre-mixes were prepared and incubated for 1 hr at room temp in the dark.
RORγ ligand binding domain, sequence (P51449 whole entry, looked up, the tested form may be a part): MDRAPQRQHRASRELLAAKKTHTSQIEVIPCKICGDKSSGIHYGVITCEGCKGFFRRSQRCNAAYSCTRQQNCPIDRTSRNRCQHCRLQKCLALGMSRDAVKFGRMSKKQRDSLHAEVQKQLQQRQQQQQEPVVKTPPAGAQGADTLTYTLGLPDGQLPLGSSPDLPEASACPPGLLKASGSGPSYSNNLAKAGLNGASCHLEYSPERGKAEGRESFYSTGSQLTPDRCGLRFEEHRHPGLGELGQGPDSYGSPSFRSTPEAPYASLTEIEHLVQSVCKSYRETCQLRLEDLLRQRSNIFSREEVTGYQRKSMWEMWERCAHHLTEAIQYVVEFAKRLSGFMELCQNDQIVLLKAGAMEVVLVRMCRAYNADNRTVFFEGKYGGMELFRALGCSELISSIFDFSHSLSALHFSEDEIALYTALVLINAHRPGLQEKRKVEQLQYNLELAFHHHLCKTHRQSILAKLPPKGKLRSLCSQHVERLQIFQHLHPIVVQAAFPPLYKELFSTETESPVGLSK

For orientation: IC50 means the concentration needed to halve the response being measured. On to `O=C(O)c1ccc(-n2cc(C(=O)c3c(Cl)cccc3C(F)(F)F)c3ccccc32)cc1` [Comparator 1, 4-[3-[2-chloro-6-(trifluoromethyl)benzoyl]-1H-indol-1-yl]benzoic acid, reference compound], for which the IC50 in assay [1] came out at 45.3 nM. Regarding `O=C(O)c1ccc(-n2cc(C(=O)c3c(F)cccc3C(F)(F)F)c3cccc(F)c32)cc1` [Comparator 2, 4-[7-fluoro-3-[2-fluoro-6-(trifluoromethyl)benzoyl]-1-H-indol-1-yl]benzoic acid, reference compound], the IC50 in assay [2] (read-out: RORγ FRET-Mean IC50) was 61.9 nM; in assay [1], 48.2 nM. On the same counts, the results for `O=C(O)c1ccc(-n2cc(C(=O)c3c(F)cccc3C(F)(F)F)c3cccc(F)c32)c(F)c1` [Comparator 5, 3-fluoro-4-[7-fluoro-3-[2-fluoro-6-(trifluoromethyl)benzoyl]-1H-indol-1-yl]benzoic acid, reference compound] are 111 nM and 47 nM. The matching figures for `O=C(O)c1ccc(-n2cc(C(=O)c3c(Cl)cccc3C(F)(F)F)c3cccc(F)c32)cc1O` [Compound 2, 4-[3-[2-chloro-6-(trifluoromethyl)benzoyl]-7-fluoro-indol-1-yl]-2-hydroxy-benzoic acid]: 17.9 nM and 12.6 nM. On the same counts, the results for `O=C(O)c1ccc(-n2cc(C(=O)c3c(Cl)cccc3C(F)(F)F)c3cccc(F)c32)c(F)c1` [Compound 3, 4-[3-[2-chloro-6-(trifluoromethyl)benzoyl]-7-fluoro-indol-1-yl]-3-fluoro-benzoic acid] are 37.9 nM and 15 nM.

Take `O=C(O)c1ccc(-n2cc(C(=O)c3c(Cl)cccc3C3CC3)c3cccc(F)c32)c(F)c1` [Compound 4, 4-[3-(2-chloro-6-cyclopropyl-benzoyl)-7-fluoro-1H-indol-1-yl]-3-fluoro-benzoic acid]: the IC50 came out at 42.9 nM in assay [2] and 31.9 nM in assay [1].
